Test results taken from ChEMBL document CHEMBL1201862, “PubChem BioAssay data set” (2004).
Activity calls are given as the source filed them.

Columns and labels:
Albumin = Albumin (Bos taurus, UniProt P02769); assay: Counterscreen for inhibitors of T-cell receptor (TCR)-CD3 interaction: Fluorescence-based biochemical high throughput dose response assay to identify inhibitors of T-cell receptor (TCR)-CD3 interaction using a TAMRA-labeled BSA probe.; type: functional
INS1 = assay: INS-1E survival protection against cytokine death – cell-based, luminescence, retest, dose response (AID 449756); type: functional; conditions: Rattus norvegicus;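 note: cell death triggered by IL-1 beta plus TNF-alpha plus IFN-gamma mixture; protective hits raise ATP signal compared with cytokine alone wells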
[1] = general cell-killing toxicity readout – plate reader, dry powder samples, cytotoxicity control for PAX8 inhibitor project, dose response (AID 743021); type: functional, cell-based
[2] = reduction of Shn3 3'UTR-driven luciferase in osteoblasts – cell-based, Clone20 osteoblasts, firefly luciferase, cherry-picked, dose response (AID 624132); type: functional;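 note: firefly luciferase luminescence from reporter carrying the Shn3 3'UTR in osteoblasts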
[3] = loss of viability in HepG2 cells – cell-based, CellTiter-Glo, cherry-picked, cytotoxicity control for Shn3 inhibitor project, dose response (AID 624134); type: functional
[4] = non-specific 3'UTR reporter inhibition in Clone20-Shn3RL – cell-based, Renilla luciferase, cherry-picked, counter-screen for Shn3 inhibitor project, dose response (AID 624133); type: functional
Paired box protein Pax-8 = Paired box protein Pax-8 (Homo sapiens, UniProt Q06710); assay: PAX8 transcriptional activity inhibition in RMG-I – RMG-I cells, luciferase, cherry-pick, dose response (AID 687027); type: functional, cell-based;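 note: luciferase reporter driven by Pax8 target thyroperoxidase promoter measured by SteadyGlo luminescence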
[5] = biological target: Potassium channel subfamily K member 3 (Homo sapiens, UniProt O14649); assay: inhibition of human KCNK3 channel flux – CHO cells, FluxOR thallium flux, SAR follow-up (AID 652212); type: functional
Major prion protein = Major prion protein (Homo sapiens, UniProt P04156); type: functional, cell-based
[6] = viability loss in THP-1 monocytes – THP-1 cells, cytotoxicity control for Vif-APOBEC3G degradation inhibitor project, dose response (AID 1117359); type: functional; conditions: THP-1
HEK293 [7] = assay: cells; type: functional, cell-based; conditions: Homo sapiens
HEK293 [8] = assay: NOD2 signaling inhibitors in MDP-stimulated cells, cell-based, uHTS, luminescence (AID 2001); type: functional; conditions: Homo sapiens
[9] = biological target: COUP transcription factor 2 (Homo sapiens, UniProt P24468); assay: Luminescence-based cell-based high throughput dose response assay to identify inhibitors of COUP-TFII (NR2F2).; type: functional;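 note: HEK293 cells transiently cotransfected with COUP-TFII expression vector and reporter; luciferase reporter luminescence driven by COUP-TFII from the pX2-168 reporter plasmid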
[10] = Luminescence Cell-Based Dose Retest to Confirm Inhibitors of Cancer Stem Cells. [Related pubchem assays (depositor defined):AID2717, AID2721]; type: functional; conditions: Homo sapiens
HEK293 [11] = assay: inhibition of NOD1-driven NF-kB reporter – cell-based, luminescence, uHTS, primary screen (AID 1578); type: functional; conditions: Homo sapiens
HEK293 [12] = assay: cells; type: functional, cell-based; conditions: Homo sapiens; remark: listed apart in the source
Caspase-6 = biological target: T1, Caspase-6 (Homo sapiens, UniProt P55212); assay: inhibition of CASP6 peptide cleavage – biochemical, VEID-R110 fluorescence, cherry-pick, dose response (AID 720632)
T1 sequence (P55212 whole entry): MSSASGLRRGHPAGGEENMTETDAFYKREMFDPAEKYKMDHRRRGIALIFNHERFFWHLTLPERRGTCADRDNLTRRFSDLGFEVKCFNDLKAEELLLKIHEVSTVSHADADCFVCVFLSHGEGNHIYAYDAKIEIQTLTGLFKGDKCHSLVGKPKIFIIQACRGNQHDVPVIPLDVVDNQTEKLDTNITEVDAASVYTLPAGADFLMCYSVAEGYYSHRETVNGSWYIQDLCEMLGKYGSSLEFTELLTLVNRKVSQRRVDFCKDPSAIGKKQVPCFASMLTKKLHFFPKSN

[13] = biological target: T2, DNA repair and recombination protein RAD54-like (Homo sapiens, UniProt Q92698); assay: RAD54 Holliday junction migration blockers – biochemical, fluorescence, cherry-picked samples, dose series, confirmation (AID 651657); type: functional
T2 sequence (Q92698 whole entry): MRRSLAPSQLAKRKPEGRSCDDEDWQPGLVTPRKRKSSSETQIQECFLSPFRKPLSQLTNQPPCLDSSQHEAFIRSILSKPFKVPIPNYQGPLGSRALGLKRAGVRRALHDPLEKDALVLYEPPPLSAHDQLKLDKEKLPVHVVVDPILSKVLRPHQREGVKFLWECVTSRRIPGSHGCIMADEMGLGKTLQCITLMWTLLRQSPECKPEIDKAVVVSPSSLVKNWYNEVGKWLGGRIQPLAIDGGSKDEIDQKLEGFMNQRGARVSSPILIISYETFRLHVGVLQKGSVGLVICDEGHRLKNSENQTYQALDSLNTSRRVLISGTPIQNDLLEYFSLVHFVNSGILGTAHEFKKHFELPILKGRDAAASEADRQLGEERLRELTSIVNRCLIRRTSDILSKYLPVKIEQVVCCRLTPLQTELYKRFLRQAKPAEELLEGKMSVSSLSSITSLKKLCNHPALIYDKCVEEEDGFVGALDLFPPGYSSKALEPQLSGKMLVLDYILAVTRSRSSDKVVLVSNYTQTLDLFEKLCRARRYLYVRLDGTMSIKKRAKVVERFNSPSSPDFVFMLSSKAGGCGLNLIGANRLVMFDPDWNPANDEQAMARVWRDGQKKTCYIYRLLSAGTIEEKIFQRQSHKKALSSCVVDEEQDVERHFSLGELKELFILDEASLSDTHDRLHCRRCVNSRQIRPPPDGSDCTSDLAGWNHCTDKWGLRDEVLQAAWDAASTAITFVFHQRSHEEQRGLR

[14] = biological target: DNA repair protein RAD52 homolog (Homo sapiens, UniProt P43351); type: functional, biochemical
Cytochrome P450 2D6 = Cytochrome P450 2D6 (Homo sapiens, UniProt P10635);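 note: CYP2D6 member of a cytochrome P450 panel assay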
Cytochrome P450 2C9 = Cytochrome P450 2C9 (Homo sapiens, UniProt P11712)
[15] = Shn3 3'UTR reporter signal decrease – cell-based, Clone20 osteoblasts, firefly luciferase, cherry-pick, set 2, Schnurri-3 inhibitor project, dose response (AID 720490); type: functional;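 note: actives lower the luminescence signal as inhibitors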

Structure (SMILES): O=C(N/N=C/c1cc(Cl)cc([N+](=O)[O-])c1O)c1cccc(S(=O)(=O)N2CCOCC2)c1
- IC50 (Albumin): > 94.1 µM (inactive)

Structure (SMILES): OC(c1cc(-c2ccc(C(F)(F)F)cc2)nc(C(F)(F)F)c1)C1CCCCN1 (stereo not given) [ENPIROLINE]
- AC50 (INS1): 6.95 µM (active)
- AC50 [1]: 41.7 µM (active)
- AC50 [2]: 4.73 µM (active)
- AC50 [3]: 6.6 µM (active)
- AC50 [4]: 3.85 µM (active)
- AC50 (Paired box protein Pax-8): 17.9 µM (active)

Structure (SMILES): CCOc1ccccc1NC(=O)c1cccc(NC(=O)c2ccc(C(F)(F)F)cc2)c1
- IC50 [5]: 0.22 µM (active)

Structure (SMILES): CCc1nonc1NC(=O)c1oc2cc(Br)ccc2c1C
- IC50 (cells): > 138 µM (inactive)
- IC50 (Major prion protein): 3.55 µM (active)

Structure (SMILES): Fc1ccc2[nH]c3c(N4CCc5ccccc5C4)ncnc3c2c1
- CC50 [6]: > 40 µM (active)
- IC50 (HEK293 [7]): 1.51 µM (active)
- IC50 (HEK293 [8]): 1.27 µM (active)
- AC50 [2]: 0.466 µM (active)
- IC50 [9]: 5.24 µM (active)
- AC50 [3]: 3.91 µM (active)
- AC50 [10]: 13.8 µM (active)
- AC50 [4]: 24.1 µM (active)
- EC50 (HEK293 [11]): 3.14 µM (active)
- IC50 (HEK293 [12]): 12.4 µM (active)

Structure (SMILES): CCC(CO)NC(=O)C1C=C2c3cccc4[nH]cc(c34)CC2N(C)C1 (stereo not given)
- AC50 (Caspase-6): 27.3 µM (active)

Structure (SMILES): Cc1ccc(-c2nc(NCCCN(C)C)c3ccccc3n2)cc1
- AC50 [13]: 10.6 µM (active)
- AC50 [14]: 7.08 µM (active)

Structure (SMILES): Cc1ccc2c(c1)nnn2C1CCN(S(=O)(=O)c2ccc(C(=O)N3C(C)CCCC3C)cc2)CC1 (stereo not given)
- AC50 (INS1): 4.53 µM (active)
- AC50 (Cytochrome P450 2D6): 0.158 µM (inconclusive)
- AC50 (Cytochrome P450 2C9): 15.8 µM (inconclusive)
- AC50 [2]: 0.695 µM (active)
- AC50 [15]: 1.29 µM (active)
- AC50 [3]: 60.8 µM (active)
- AC50 [4]: 11.4 µM (active)
